In one series the target is T1, human HDAC5 (Homo sapiens, UniProt Q9UQL6).
T1 construct: made in house
As to the kind of experiment: HDAC5 dose response, substrate Abz-SRGGK(thio-TFA)FFRR-NH2. In kind it is biochemical. The procedure:
(§1) Recombinant human HDAC1, HDAC2, and HDAC3/NCOR1 were purchased from ENZO Life Sciences AG (Lausen, CH). Recombinant human HDAC 4, HDAC5, HDAC7, HDAC9 and HDAC11 were produced by Barinka lab in Prague, as described before. Recombinant human HDAC8 was produced by Romier et al. (IGBMC, Univ. Strasbourg), as described in [55].
(§2) The determination of dose response curves for HDAC4, 5, 7 and 9 was performed as previously described with compound 4 as substrate (Abz-SRGGK(thio-TFA)FFRR-NH2). The substrate concentration was 50 µM and the enzyme concentration was 10 nM for HDAC4 and HDAC5, 5 nM for HDAC7 and 20 nM for HDAC9. HDAC11 inhibition assay was performed as described before. The fluorescence intensity was recorded with an Envision 2104 Multilabel Plate Reader (PerkinElmer, Waltham, MA) with an excitation wavelength of 330 ± 75 nm and an emission wavelength of 430 ± 8 nm.

A short description of the next series: in vitro. The settings on record: human, HEK293 cells.
The target in a further series is T2, human HDAC9 (Homo sapiens, UniProt Q9UKV0).
T2 construct: made in house
T2 sequence (Q9UKV0 whole entry): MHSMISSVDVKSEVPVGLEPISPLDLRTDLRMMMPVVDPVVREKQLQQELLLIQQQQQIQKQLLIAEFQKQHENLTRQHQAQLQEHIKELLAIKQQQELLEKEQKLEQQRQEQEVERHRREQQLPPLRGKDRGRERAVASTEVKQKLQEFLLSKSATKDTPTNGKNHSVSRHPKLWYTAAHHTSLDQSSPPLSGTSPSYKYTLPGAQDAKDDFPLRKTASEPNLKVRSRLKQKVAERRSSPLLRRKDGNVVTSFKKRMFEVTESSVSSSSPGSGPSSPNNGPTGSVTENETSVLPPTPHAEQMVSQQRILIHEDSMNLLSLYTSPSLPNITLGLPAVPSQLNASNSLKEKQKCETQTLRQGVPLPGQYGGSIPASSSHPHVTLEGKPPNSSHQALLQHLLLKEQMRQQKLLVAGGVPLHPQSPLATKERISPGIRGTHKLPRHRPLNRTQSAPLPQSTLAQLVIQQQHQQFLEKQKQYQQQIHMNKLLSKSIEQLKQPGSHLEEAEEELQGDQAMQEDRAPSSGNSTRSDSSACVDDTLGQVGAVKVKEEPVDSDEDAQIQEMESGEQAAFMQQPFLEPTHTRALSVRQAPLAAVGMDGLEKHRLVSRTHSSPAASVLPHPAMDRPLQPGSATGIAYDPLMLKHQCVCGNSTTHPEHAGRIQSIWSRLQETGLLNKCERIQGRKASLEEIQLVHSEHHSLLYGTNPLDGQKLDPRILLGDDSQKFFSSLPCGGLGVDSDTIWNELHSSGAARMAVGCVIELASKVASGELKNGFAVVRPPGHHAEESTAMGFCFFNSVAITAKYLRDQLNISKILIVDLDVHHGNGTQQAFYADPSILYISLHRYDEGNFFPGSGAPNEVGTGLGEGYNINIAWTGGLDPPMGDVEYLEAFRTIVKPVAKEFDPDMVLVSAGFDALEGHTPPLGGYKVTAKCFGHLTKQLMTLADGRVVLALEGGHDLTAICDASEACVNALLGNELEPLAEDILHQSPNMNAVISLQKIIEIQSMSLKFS
As to the kind of experiment: HDAC9 dose response, substrate Abz-SRGGK(thio-TFA)FFRR-NH2. The format is biochemical. As for the experimental part: as §1, §2

Another series has as its target T3, human HDAC7 (Homo sapiens, UniProt Q8WUI4).
T3 construct: made in house
T3 sequence (Q8WUI4 1-952): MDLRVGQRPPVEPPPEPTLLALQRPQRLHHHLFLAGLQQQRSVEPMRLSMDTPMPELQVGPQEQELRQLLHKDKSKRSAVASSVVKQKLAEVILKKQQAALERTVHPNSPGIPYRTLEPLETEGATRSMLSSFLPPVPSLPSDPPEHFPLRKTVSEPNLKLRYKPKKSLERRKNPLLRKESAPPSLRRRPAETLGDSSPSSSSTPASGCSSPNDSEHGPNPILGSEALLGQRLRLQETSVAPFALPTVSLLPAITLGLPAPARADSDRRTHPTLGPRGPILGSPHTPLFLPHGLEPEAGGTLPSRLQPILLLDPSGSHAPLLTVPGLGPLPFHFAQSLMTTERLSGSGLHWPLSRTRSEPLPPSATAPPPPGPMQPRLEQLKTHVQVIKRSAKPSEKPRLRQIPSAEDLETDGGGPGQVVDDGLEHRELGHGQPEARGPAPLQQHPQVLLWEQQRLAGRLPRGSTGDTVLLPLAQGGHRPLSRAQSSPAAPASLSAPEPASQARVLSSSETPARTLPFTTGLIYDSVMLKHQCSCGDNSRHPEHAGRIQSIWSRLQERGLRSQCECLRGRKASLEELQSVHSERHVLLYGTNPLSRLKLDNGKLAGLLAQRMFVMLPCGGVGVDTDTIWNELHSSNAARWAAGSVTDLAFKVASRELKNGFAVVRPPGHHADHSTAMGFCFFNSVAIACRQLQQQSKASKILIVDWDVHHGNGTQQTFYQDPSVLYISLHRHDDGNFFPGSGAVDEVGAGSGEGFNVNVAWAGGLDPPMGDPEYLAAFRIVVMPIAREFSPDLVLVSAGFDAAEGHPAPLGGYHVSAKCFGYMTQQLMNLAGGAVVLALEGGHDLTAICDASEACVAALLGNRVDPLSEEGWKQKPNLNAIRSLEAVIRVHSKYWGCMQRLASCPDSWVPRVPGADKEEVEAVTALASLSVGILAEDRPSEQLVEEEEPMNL
As to the kind of experiment: HDAC7 dose response, substrate Abz-SRGGK(thio-TFA)FFRR-NH2. In kind it is biochemical. As for the experimental part: as §1, §2

The next series deals with T4, human HDAC2 (Homo sapiens, UniProt Q92769).
T4 construct: purchased ENZO Life Sciences AG (Lausen, CH)
T4 sequence (Q92769 whole entry): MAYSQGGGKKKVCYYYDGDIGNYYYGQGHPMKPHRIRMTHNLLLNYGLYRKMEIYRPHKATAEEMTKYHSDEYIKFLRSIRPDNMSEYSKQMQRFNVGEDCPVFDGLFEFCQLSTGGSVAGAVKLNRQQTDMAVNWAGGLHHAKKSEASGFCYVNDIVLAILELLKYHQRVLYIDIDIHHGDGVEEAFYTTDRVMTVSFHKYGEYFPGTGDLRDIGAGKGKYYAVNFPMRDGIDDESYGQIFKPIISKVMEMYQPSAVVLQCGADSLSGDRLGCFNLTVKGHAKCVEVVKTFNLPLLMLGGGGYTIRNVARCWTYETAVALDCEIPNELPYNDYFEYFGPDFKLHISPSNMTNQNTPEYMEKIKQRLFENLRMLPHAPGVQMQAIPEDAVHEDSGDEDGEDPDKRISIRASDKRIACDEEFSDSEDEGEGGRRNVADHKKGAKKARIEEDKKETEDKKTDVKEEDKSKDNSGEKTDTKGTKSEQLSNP
As to the kind of experiment: In vitro HDAC2 inhibition assay, fluorogenic p53 peptide Ac-RHKK(Acetyl)-AMC. In kind it is biochemical. The settings on record: 3 nM HDAC2, 20 µM substrate, 30 min, 37 °C. The method in brief: (§3)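 Enzymes (10 nM HDAC1, 3 nM HDAC2 or HDAC3) were preincubated with inhibitor for ≥5 min in HEPES buffer pH 7.4 at 37 °C. Reactions ran with 20 µM substrate for 90 min (HDAC1) or 30 min (HDAC2/3), then were developed with trypsin/SAHA for 1 h. IC50 was fitted from fluorescence normalised to uninhibited and no-enzyme controls.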

The target in another series is T5, human HDAC3/NCOR1 (Homo sapiens, UniProt O15379).
T5 construct: purchased ENZO Life Sciences AG (Lausen, CH)
T5 sequence (O15379 whole entry): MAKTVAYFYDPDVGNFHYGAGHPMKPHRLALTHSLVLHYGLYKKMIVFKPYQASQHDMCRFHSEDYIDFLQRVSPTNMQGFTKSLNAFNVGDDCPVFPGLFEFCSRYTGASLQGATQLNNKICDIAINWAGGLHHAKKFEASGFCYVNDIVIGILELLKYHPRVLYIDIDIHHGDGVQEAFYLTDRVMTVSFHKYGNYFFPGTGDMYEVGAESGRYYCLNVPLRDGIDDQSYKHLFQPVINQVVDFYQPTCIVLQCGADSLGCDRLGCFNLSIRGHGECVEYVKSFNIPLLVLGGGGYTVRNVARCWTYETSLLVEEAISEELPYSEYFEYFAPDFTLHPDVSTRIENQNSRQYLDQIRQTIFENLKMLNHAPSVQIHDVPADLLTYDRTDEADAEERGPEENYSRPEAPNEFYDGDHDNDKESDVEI
T5 sequence (O75376 395-489 partner limits assumed): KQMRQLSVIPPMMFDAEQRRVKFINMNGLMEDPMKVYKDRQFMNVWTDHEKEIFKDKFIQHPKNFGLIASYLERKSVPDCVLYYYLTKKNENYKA
Briefly: In vitro HDAC3 inhibition assay, fluorogenic p53 peptide Ac-RHKK(Acetyl)-AMC. The format is biochemical. The method in brief:
as §3

Where only a bound is given, the exact number is not on record here.

The results in this text go back to article PMC8745332, “Synthesis, Molecular Docking and Biological Characterization of Pyrazine Linked 2-Aminobenzamides as New Class I Selective Histone Deacetylase (HDAC) Inhibitors with Anti-Leukemic Activity” (International Journal of Molecular Sciences, 2021).

T1 sequence (Q9UQL6 whole entry): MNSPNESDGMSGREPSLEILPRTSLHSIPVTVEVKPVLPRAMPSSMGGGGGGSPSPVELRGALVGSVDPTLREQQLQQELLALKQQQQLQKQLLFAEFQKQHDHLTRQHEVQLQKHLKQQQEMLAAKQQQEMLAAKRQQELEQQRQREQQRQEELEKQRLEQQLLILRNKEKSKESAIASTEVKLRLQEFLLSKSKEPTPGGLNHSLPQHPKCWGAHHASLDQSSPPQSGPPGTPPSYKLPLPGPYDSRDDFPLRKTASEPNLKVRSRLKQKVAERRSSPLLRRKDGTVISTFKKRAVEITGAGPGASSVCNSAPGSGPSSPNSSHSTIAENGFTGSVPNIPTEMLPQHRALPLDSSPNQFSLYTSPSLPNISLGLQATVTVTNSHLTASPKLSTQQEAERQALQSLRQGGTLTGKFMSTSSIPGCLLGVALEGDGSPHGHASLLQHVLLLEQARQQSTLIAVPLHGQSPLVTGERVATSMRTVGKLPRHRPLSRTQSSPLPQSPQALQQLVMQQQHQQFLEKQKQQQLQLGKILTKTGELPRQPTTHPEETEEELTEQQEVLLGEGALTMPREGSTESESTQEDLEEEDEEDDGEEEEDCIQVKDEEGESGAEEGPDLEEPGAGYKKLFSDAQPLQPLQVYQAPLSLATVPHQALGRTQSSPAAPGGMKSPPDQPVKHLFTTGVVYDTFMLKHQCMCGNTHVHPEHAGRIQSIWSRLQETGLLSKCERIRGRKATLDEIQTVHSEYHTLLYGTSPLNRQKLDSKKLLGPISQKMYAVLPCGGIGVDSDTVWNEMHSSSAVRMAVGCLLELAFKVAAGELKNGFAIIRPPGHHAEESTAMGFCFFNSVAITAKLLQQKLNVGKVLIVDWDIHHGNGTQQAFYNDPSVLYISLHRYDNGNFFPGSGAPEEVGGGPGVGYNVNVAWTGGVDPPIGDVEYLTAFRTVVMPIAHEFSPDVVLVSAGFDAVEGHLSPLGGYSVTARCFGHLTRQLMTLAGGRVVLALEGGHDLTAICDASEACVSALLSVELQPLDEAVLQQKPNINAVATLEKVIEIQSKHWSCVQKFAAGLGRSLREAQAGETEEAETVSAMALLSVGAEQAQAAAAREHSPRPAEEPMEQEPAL

As for `Cn1cc(CCN2CCN(c3cnc(C(=O)Nc4cc(-c5cccs5)ccc4N)cn3)CC2)c2ccccc21` [21a, N-(2-Amino-5-(thiophen-2-yl)phenyl)-5-(4-(2-(1-methyl-1H-indol-3-yl)ethyl)piperazin-1-yl)pyrazine-2-carboxamide], the IC50 was more than 20 µM on human HDAC5, more than 20 µM at human HDAC9, more than 20 µM against human HDAC7 and 2.47 ± 0.22 µM against human HDAC2. Further, the viability at 48 h, 50 µM in “in vitro” was 94.4%. Moreover, the inhibition at 1 µM on human HDAC3/NCOR1 (read-out: HDAC3 % inhibition @ 1 µM) amounted to 0%.
Regarding `Nc1ccccc1NC(=O)c1cnc(N2CCN(Cc3c[nH]c4ccccc34)CC2)cn1` [19f, 5-(4-((1H-indol-3-yl)methyl)piperazin-1-yl)-N-(2-aminophenyl)pyrazine-2-carboxamide], the concentration for half-maximal inhibition (IC50) against human HDAC5 was more than 20 µM; against human HDAC9, more than 20 µM; at human HDAC7, more than 20 µM; on human HDAC2, 0.28 ± 0.01 µM; against human HDAC3/NCOR1 (3 nM HDAC3, 20 µM substrate, 30 min, 37 °C) it was 0.31 ± 0.01 µM. In “in vitro”, this molecule showed a viability at 48 h, 50 µM of 76.1%.

A word on the IC50: it is the concentration that gives 50% inhibition. Low values mean higher potency, high ones lower potency. Broadly, the viability is a per cent measure of how many cells are alive, often set against a control. High values mean better survival, low ones a greater loss of cells. The term inhibition denotes the percentage by which the read-out fell short of the control.
